In article doi:10.1101/2023.10.20.563248v1 (biorxiv, 2023):

What was measured:
LIMK1 = LIMK1 (Homo sapiens, UniProt P53667); experiment: NanoBRET tracer displacement, HEK293T; format: cell-based; settings: intact cells; […] °C, […] h; competitive with tracer
[1] = molecular target: MST3 (full-length, NanoLuc fusion) (Homo sapiens, UniProt Q9Y6E0); experiment: cell-based
DYRK1B = DYRK1B (Homo sapiens, UniProt Q9Y463); experiment: biochemical; settings: read-out: 21c Remaining activity, percent of control [%]
TTBK1 = TTBK1 (Homo sapiens, UniProt Q5TCY1); experiment: biochemical; settings: read-out: 21c Remaining activity, percent of control [%]
STK33 = STK33 (Homo sapiens, UniProt Q9BYT3); experiment: biochemical; settings: read-out: 21c Remaining activity, percent of control [%]
LTK = LTK (Homo sapiens, UniProt P29376); experiment: biochemical; settings: read-out: 21c Remaining activity, percent of control [%]
MST3 = MST3 (Homo sapiens, UniProt Q9Y6E0); experiment: biochemical; settings: 1 µM; inhibitor
MYLK = MYLK (Homo sapiens, UniProt Q15746); settings: 1 µM; inhibitor
SNK = SNK (Homo sapiens, UniProt Q9NYY3); settings: 1 µM; inhibitor
WNK3 = WNK3 (Homo sapiens, UniProt Q9BYP7); settings: 1 µM; inhibitor
Sequence of WNK3 (Q9BYP7 whole entry): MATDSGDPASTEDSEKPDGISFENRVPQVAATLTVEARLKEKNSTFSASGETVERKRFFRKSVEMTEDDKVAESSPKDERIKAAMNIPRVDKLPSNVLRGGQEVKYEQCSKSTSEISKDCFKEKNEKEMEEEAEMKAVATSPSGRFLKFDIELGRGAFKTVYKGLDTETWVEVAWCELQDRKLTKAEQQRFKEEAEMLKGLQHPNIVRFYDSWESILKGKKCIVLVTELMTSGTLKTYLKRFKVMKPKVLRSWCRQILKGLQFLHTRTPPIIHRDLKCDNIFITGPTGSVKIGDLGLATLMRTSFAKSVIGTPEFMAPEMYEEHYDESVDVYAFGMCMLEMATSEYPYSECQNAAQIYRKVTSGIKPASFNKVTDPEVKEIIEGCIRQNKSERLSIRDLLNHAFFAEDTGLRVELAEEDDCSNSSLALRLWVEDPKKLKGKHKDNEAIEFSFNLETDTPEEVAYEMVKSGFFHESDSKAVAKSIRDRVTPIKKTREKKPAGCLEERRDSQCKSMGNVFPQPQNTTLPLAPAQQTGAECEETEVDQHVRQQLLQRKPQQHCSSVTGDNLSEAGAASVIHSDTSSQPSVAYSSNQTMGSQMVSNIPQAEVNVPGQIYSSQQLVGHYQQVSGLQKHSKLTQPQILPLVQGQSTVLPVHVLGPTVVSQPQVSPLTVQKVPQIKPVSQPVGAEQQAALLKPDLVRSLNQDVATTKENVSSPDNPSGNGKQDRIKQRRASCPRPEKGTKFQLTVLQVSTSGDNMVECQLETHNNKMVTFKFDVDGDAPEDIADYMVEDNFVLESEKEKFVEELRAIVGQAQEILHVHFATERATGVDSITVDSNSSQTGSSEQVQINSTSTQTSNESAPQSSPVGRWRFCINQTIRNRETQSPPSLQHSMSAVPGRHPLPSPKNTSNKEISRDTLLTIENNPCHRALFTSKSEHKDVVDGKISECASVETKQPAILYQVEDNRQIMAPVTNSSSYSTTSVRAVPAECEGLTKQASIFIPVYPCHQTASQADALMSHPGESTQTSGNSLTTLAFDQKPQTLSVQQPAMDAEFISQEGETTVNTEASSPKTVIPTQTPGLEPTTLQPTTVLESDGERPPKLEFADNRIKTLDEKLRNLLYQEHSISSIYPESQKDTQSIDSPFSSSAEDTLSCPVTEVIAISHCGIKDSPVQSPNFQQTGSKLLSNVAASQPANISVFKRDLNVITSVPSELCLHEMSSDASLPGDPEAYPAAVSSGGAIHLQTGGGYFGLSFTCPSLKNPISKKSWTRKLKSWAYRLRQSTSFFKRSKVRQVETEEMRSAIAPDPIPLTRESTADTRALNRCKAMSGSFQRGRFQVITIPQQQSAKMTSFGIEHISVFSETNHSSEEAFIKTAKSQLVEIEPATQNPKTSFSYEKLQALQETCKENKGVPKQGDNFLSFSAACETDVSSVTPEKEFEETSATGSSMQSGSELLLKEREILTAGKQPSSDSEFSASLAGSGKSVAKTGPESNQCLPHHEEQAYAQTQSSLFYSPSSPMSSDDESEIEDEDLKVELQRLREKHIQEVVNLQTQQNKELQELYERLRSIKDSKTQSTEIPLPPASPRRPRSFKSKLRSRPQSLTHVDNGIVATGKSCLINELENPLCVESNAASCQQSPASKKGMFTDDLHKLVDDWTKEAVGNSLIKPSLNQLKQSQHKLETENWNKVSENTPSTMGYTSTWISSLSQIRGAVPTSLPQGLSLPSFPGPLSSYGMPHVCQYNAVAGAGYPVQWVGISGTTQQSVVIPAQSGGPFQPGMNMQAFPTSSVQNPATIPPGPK

EPHA3 = EPHA3 (Homo sapiens, UniProt P29320); settings: 1 µM; inhibitor
ERBB4 = ERBB4 (Homo sapiens, UniProt Q15303); settings: 1 µM; inhibitor
Sequence of ERBB4 (Q15303 whole entry): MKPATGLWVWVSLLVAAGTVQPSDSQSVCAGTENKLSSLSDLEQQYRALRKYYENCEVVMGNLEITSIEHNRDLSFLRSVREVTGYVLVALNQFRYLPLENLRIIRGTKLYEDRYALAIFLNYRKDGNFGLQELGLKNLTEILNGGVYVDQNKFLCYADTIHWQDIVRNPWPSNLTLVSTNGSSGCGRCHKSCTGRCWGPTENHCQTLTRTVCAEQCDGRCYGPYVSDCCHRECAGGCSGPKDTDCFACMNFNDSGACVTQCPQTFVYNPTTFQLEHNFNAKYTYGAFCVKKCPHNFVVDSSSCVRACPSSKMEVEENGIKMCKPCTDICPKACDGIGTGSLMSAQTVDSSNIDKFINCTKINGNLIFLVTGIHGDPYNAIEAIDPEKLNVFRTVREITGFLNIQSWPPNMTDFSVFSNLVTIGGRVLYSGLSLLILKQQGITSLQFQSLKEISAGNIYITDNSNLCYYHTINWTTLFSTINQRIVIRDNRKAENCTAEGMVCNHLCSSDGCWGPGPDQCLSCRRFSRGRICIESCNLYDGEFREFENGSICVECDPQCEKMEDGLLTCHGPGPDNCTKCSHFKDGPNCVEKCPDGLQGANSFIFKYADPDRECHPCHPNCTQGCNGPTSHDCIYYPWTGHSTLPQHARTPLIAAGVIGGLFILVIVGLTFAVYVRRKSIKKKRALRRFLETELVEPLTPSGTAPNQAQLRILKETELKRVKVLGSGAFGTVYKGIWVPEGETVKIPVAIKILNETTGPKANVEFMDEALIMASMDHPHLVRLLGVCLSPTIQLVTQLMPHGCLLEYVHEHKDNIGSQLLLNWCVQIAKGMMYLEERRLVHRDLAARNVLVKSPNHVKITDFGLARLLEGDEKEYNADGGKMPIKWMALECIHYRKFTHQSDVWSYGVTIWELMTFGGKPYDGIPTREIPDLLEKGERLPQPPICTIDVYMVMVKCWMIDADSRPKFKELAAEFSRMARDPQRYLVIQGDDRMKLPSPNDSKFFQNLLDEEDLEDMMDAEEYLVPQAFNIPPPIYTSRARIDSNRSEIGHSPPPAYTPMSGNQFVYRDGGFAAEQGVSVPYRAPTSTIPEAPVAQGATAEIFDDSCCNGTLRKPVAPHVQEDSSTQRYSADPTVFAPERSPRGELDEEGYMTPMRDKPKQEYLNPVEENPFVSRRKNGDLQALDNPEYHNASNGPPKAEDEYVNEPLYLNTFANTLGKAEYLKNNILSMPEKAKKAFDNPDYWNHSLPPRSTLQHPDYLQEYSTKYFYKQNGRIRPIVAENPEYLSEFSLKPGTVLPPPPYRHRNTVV

CDK6/CycD2 = CDK6/CycD2 (Homo sapiens, UniProt Q00534); settings: 1 µM; inhibitor
ERK1 = ERK1 (Homo sapiens, UniProt P27361); settings: 1 µM; inhibitor
FLT4 = FLT4 (Homo sapiens, UniProt P35916); settings: 1 µM; inhibitor
BMX = BMX (Homo sapiens, UniProt P51813); settings: 1 µM; inhibitor
TEC = TEC (Homo sapiens, UniProt P42680); settings: 1 µM; inhibitor
PKN3 = PKN3 (Homo sapiens, UniProt Q6P5Z2); settings: 1 µM; inhibitor
GSK3B = GSK3B (Homo sapiens, UniProt P49841); settings: 1 µM; inhibitor
Sequence of GSK3B (P49841 whole entry): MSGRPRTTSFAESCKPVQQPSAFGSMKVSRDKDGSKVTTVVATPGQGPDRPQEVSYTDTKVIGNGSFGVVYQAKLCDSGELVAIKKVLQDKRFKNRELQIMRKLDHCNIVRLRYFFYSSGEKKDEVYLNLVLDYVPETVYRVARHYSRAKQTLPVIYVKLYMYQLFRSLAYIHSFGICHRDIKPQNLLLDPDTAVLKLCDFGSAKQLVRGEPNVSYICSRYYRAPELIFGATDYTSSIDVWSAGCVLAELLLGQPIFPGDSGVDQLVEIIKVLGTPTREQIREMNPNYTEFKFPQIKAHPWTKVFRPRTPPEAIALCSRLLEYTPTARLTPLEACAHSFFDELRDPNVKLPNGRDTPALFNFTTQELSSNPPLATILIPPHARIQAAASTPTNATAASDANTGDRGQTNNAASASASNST

BRSK1 = BRSK1 (Homo sapiens, UniProt Q8TDC3); settings: 1 µM; inhibitor
JAK2 = JAK2 (Homo sapiens, UniProt O60674); settings: 1 µM; inhibitor
Sequence of JAK2 (O60674 whole entry): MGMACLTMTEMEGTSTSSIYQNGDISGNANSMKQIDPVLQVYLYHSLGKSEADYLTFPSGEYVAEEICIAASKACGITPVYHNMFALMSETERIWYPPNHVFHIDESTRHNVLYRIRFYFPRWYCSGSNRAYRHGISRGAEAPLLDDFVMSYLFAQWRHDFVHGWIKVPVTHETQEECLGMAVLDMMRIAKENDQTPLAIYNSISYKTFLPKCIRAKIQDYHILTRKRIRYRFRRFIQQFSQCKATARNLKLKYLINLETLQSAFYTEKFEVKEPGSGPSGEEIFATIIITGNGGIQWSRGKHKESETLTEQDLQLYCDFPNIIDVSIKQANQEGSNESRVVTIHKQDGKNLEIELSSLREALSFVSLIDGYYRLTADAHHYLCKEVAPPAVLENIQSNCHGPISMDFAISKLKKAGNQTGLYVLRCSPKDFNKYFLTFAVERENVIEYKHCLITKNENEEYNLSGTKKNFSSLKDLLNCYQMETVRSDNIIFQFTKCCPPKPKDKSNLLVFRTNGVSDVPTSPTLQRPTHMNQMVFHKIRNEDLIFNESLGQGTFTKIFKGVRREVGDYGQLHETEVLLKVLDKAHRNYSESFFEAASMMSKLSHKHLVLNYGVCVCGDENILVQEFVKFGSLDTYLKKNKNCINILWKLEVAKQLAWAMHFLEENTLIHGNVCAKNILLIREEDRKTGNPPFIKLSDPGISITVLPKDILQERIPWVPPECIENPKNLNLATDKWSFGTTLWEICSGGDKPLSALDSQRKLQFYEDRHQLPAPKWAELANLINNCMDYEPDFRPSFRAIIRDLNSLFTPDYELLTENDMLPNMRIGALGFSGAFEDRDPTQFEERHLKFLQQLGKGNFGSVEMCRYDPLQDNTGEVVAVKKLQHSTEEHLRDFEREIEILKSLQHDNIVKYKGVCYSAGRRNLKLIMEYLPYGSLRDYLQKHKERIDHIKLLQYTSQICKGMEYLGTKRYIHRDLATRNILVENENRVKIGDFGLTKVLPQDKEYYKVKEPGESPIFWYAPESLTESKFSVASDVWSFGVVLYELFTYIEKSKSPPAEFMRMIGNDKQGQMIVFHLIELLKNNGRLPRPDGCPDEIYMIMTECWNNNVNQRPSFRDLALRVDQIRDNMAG

MKNK1 = MKNK1 (Homo sapiens, UniProt Q9BUB5); settings: 1 µM; inhibitor
Sequence of MKNK1 (Q9BUB5 whole entry): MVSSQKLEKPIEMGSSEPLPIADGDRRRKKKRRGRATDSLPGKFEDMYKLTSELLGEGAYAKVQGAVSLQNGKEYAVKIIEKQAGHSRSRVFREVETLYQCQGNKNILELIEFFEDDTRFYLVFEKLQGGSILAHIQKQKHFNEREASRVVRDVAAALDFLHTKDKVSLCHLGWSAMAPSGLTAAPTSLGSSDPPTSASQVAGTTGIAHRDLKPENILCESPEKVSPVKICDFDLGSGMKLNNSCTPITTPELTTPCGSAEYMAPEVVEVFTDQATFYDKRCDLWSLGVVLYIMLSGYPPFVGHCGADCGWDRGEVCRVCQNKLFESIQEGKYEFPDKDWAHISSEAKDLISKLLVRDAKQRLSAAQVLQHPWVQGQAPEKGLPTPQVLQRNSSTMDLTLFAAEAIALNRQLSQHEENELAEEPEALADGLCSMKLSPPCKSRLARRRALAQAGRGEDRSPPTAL

AurC = AurC (Homo sapiens, UniProt Q9UQB9); settings: 1 µM; inhibitor
SIK3 = SIK3 (Homo sapiens, UniProt Q9Y2K2); settings: 1 µM; inhibitor

Question: What does the source list for `O=C1NCCCCCNc2nc(c3ccccc3n2)Nc2cc1[nH]n2` [21c, (Z)-3^1H-2,5,11-triaza-1(4,2)-quinazolina-3(3,5)-pyrazolacycloundecaphan-4-one]?
Answer: EC50 (LIMK1): 5670 ± 1020 nM; EC50 [1]: 106 nM; remaining activity at 1 µM (DYRK1B): 79.7%; remaining activity at 1 µM (TTBK1): 112%; remaining activity at 1 µM (STK33): 88.7%; remaining activity at 1 µM (LTK): 92%; 21c Remaining activity, percent of control [%] (MST3): 13.5%; 21c Remaining activity, percent of control [%] (MYLK): 68.9%; 21c Remaining activity, percent of control [%] (SNK): 78.3%; 21c Remaining activity, percent of control [%] (WNK3): 98.5%; 21c Remaining activity, percent of control [%] (EPHA3): 97.7%; 21c Remaining activity, percent of control [%] (ERBB4): 90.7%; 21c Remaining activity, percent of control [%] (CDK6/CycD2): 85.8%; 21c Remaining activity, percent of control [%] (ERK1): 85.8%; 21c Remaining activity, percent of control [%] (FLT4): 93.9%; 21c Remaining activity, percent of control [%] (BMX): 84.8%; 21c Remaining activity, percent of control [%] (TEC): 91.4%; 21c Remaining activity, percent of control [%] (PKN3): 92.6%; 21c Remaining activity, percent of control [%] (GSK3B): 81.4%; 21c Remaining activity, percent of control [%] (BRSK1): 112.9%; 21c Remaining activity, percent of control [%] (JAK2): 96.2%; 21c Remaining activity, percent of control [%] (MKNK1): 97.3%; 21c Remaining activity, percent of control [%] (AurC): 90.2%; 21c Remaining activity, percent of control [%] (SIK3): 72.1%
